Reference: patent US20260265233A1, “BENZOTHIOPHENE DERIVATIVES AS RXFP1 AGONISTS” (BRISTOL-MYERS SQUIBB COMPANY, priority 2021, published 2026)

Each compound was assayed against T1, human RXFP1 (Homo sapiens, UniProt Q9HBX9) (assay: hRXFP1 HEK293 cAMP assay (HTRF)). Details: HEK293 cells stably expressing human RXFP1; 30 min at rt; intracellular cAMP by HTRF.
T1 construct: expressed in transfected cells
T1 sequence (Q9HBX9 1-757): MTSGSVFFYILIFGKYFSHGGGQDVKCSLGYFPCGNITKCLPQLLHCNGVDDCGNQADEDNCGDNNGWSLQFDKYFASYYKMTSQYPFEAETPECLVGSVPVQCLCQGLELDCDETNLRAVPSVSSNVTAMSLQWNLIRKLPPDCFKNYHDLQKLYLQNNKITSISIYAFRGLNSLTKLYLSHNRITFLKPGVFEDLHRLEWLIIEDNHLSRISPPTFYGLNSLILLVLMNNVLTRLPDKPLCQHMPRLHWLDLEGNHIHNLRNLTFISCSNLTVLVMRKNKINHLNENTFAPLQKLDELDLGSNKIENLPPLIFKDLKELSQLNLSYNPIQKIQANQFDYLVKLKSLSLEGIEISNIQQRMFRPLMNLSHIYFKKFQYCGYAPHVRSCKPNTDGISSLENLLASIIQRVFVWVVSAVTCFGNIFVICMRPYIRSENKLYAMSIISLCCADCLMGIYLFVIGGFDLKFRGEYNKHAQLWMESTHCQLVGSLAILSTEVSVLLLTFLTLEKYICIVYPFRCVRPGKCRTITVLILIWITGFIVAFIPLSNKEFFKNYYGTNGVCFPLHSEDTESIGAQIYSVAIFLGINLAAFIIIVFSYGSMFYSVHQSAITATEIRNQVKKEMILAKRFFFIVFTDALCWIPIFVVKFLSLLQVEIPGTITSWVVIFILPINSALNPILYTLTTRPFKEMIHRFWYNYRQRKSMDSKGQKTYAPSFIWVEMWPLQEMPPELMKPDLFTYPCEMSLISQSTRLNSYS
Type: cell-based
Summary of the method: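 HEK293 cells stably expressing human RXFP1 treated 30 min at rt with compound (0.010 nM to 50 μM, 2% DMSO) in HBSS/HEPES buffer with 0.5 mM IBMX. Intracellular cAMP measured by HTRF (665/590 nm ratio) against a cAMP standard curve; potency fitted by 4-parameter logistic.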

Compound	EC50
(R)-6-chloro- N-(4-fluoro-3- (trifluoromethyl) phenyl)-3-(5- (2- (hydroxymethyl) morpholine- 4-carbonyl)-2- methoxy- benzamido) thieno[3, 2-c]pyridine-2- carboxamide [Example 239]	2100 nM
COc1ccc(C2CC3(C2)CN(C(=O)CC(C)(C)O)C3)cc1C(=O)Nc1c(C(=O)Nc2ccc(F)c(C(F)(F)F)c2)sc2cc(C(F)(F)F)ccc12 [Example 109, N-(4-fluoro-3-(trifluoromethyl)phenyl)-3-(5-(2-(3-hydroxy-3-methylbutanoyl)-2-azaspiro[3.3]heptan-6-yl)-2-methoxy-benzamido)-6-(trifluoromethyl) benzo[b] thiophene-2-carboxamide]	509 nM
COc1ccc(C2CCCN(C3COC3)C2)cc1C(=O)Nc1c(C(=O)Nc2ccc(F)c(C(F)(F)F)c2)sc2cc(C(F)(F)F)ccc12 (centres unmarked) [Example 97, N-(4-fluoro-3-(trifluoromethyl)phenyl)-3-(2-methoxy-5-(1-(oxetan-3-yl)piperidin-3-yl)benzamido)-6-(trifluoromethyl) benzo[b] thiophene-2-carboxamide]	607 nM
COc1ccc(C2CCN(C(=O)C(C)(C)O)C2)cc1C(=O)Nc1c(C(=O)Nc2ccc(F)c(C(F)(F)F)c2)sc2cc(C(F)(F)F)ccc12 (centres unmarked) [Example 140, N-(4-fluoro-3-(trifluoromethyl)phenyl)-3-(5-(1-(2-hydroxy-2-methylpropanoyl)pyrrolidin-3-yl)-2-methoxy-benzamido)-6-(trifluoromethyl) benzo[b] thiophene-2-carboxamide]	97.9 nM
COc1ccc(C2=NOC3CNCC23)cc1C(=O)Nc1c(C(=O)Nc2ccc(F)c(C(F)(F)F)c2)sc2cc(C(F)(F)F)ccc12 (centres unmarked) [Example 247, N-(4-fluoro-3-(trifluoromethyl)phenyl)-3-(2-methoxy-5-(3a,5,6,6a-tetrahydro-4H-pyrrolo[3,4-d]isoxazol-3-yl)benzamido)-6-(trifluoromethyl) benzo[b] thiophene-2-carboxamide]	531 nM
COc1ccc(C2=NOC3(CCN(C(=O)C(C)(C)O)CC3)C2)cc1C(=O)Nc1c(C(=O)Nc2ccc(F)c(C(F)(F)F)c2)sc2cc(C(F)(F)F)ccc12 [Example 270, N-(4-fluoro-3-(trifluoromethyl)phenyl)-3-(5-(8-(2-hydroxy-2-methylpropanoyl)-1-oxa-2,8-diazaspiro[4.5]dec-2-en-3-yl)-2-methoxy-benzamido)-6-(trifluoromethyl) benzo[b] thiophene-2-carboxamide]	532 nM
COc1ccc(C2=NOC3CN(C(=O)CO)CC23)cc1C(=O)Nc1c(C(=O)Nc2ccc(F)c(C(F)(F)F)c2)sc2cc(C(F)(F)F)ccc12 (single isomer, unassigned) [Example 242, N-(4-fluoro-3-(trifluoromethyl)phenyl)-3-(5-(5-(2-hydroxyacetyl)-3a,5,6,6a-tetrahydro-4H-pyrrolo[3,4-d]isoxazol-3-yl)-2-methoxy-benzamido)-6-(trifluoromethyl) benzo[b] thiophene-2-carboxamide]	9.8 nM
COc1ccc(C(=O)N2CCOCC2)cc1C(=O)Nc1c(C(=O)Nc2ccc(F)c(C(F)(F)F)c2)sc2cc(C(F)(F)F)ccc12 [Example 221, N-(4-fluoro-3-(trifluoromethyl)phenyl)-3-(2-methoxy-5-(morpholine-4-carbonyl)benzamido)-6-(trifluoromethyl) benzo[b] thiophene-2-carboxamide]	1100 nM
COc1ncc(C(=O)N2CC(O)C2)cc1C(=O)Nc1c(C(=O)Nc2ccc(F)c(C(F)(F)F)c2)sc2cc(C(F)(F)F)ccc12 [Example 173, N-(2-((4-fluoro-3-(trifluoromethyl)phenyl)carbamoyl)-6-(trifluoromethyl)benzo[b]thiophen-3-yl)-5-(3-hydroxyazetidine-1-carbonyl)-2-methoxy-nicotinamide]	179 nM
COc1ccc(C2CCCC(NC3COC3)C2)cc1C(=O)Nc1c(C(=O)Nc2ccc(F)c(C(F)(F)F)c2)sc2cc(C(F)(F)F)ccc12 (single isomer, unassigned) [Example 60, N-(4-fluoro-3-(trifluoromethyl)phenyl)-3-(2-methoxy-5-(3-(oxetan-3-ylamino)cyclohexyl)benzamido)-6-(trifluoromethyl) benzo[b] thiophene-2-carboxamide]	743 nM
COc1ccc(/C=C\C(=O)O)cc1C(=O)Nc1c(C(=O)Nc2ccc(F)c(C(F)(F)F)c2)sc2cc(C(F)(F)F)ccc12 [Example 45, (Z)-3-(3-((2-((4-fluoro-3-(trifluoromethyl)phenyl)carbamoyl)-6-(trifluoromethyl)benzo[b]thiophen-3-yl)carbamoyl)-4-methoxyphenyl) acrylic acid]	975 nM
COC(=O)C1CC(c2ccc(OC)c(C(=O)Nc3c(C(=O)Nc4ccc(F)c(C(F)(F)F)c4)sc4cc(C(F)(F)F)ccc34)c2)=NO1 (centres unmarked) [Example 57, methyl 3-(3-((2-((4-fluoro-3-(trifluoromethyl)phenyl)carbamoyl)-6-(trifluoromethyl)benzo[b]thiophen-3-yl)carbamoyl)-4-methoxyphenyl)-4,5-dihydroisoxazole-5-carboxylate]	636 nM

The remaining lines, values ahead:

EC50	Compound
90.7 nM	COc1ccc(C2=NOC3CC(NC(=O)CO)CC23)cc1C(=O)Nc1c(C(=O)Nc2ccc(F)c(C(F)(F)F)c2)sc2cc(C(F)(F)F)ccc12 (centres unmarked) [Example 261, N-[4-fluoro-3-(trifluoromethyl)phenyl]-3-{5-[5-(2-hydroxy-acetamido)-3aH,4H,5H,6H, 6aH-cyclopenta[d] [1,2]oxazol-3-yl]-2-methoxy-benzamido}-6-(trifluoromethyl)-1-benzothiophene-2-carboxamide]
237 nM	COC(=O)C(=O)N1CCCC(c2ccc(OC)c(C(=O)Nc3c(C(=O)Nc4ccc(F)c(C(F)(F)F)c4)sc4cc(C(F)(F)F)ccc34)c2)C1 (centres unmarked) [Example 80, methyl 2-(3-(3-((2-((4-fluoro-3-(trifluoromethyl)phenyl)carbamoyl)-6-(trifluoromethyl)benzo[b]thiophen-3-yl)carbamoyl)-4-methoxyphenyl)piperidin-1-yl)-2-oxoacetate]
1720 nM	COc1ccc(C(=O)N2CC(C)(C)C2)cc1C(=O)Nc1c(C(=O)Nc2ccc(F)c(C(F)(F)F)c2)sc2cc(C(F)(F)F)ccc12 [Example 27, 3-(5-(3,3-dimethylazetidine-1-carbonyl)-2-methoxybenzamido)-N-(4-fluoro-3-(trifluoromethyl)phenyl)-6-(trifluoromethyl) benzo[b]thiophene-2-carboxamide]
279 nM	COc1ccc(C(=O)N2CCC(CO)CC2)cc1C(=O)Nc1c(C(=O)Nc2ccc(F)c(C(F)(F)F)c2)sc2cc(C(F)(F)F)ccc12 [Example 176, N-(4-fluoro-3-(trifluoromethyl)phenyl)-3-(5-(4-(hydroxymethyl)piperidine-1-carbonyl)-2-methoxy-benzamido)-6-(trifluoromethyl) benzo[b] thiophene-2-carboxamide]
1110 nM	COc1ccc(C2CCCN(CCO)C2)cc1C(=O)Nc1c(C(=O)Nc2ccc(F)c(C(F)(F)F)c2)sc2cc(C(F)(F)F)ccc12 (centres unmarked) [Example 85, N-(4-fluoro-3-(trifluoromethyl)phenyl)-3-(5-(1-(2-hydroxyethyl)piperidin-3-yl)-2-methoxy-benzamido)-6-(trifluoromethyl) benzo[b] thiophene-2-carboxamide]
237 nM	COc1ccc(-c2cc(C(=O)O)ccc2F)cc1C(=O)Nc1c(C(=O)Nc2ccc(F)c(C(F)(F)F)c2)sc2cc(C(F)(F)F)ccc12 [Example 128, 6-fluoro-3′-((2-((4-fluoro-3-(trifluoromethyl)phenyl)carbamoyl)-6-(trifluoromethyl)benzo[b]thiophen-3-yl)carbamoyl)-4′-methoxy-[1,1′-biphenyl]-3-carboxylic acid]
690 nM	COc1ccc(C2CCCN(C(=O)CO)C2)cc1C(=O)Nc1c(C(=O)Nc2ccc(F)c(C(F)(F)F)c2)sc2cc(C(F)(F)F)ccc12 (single isomer, unassigned) [Example 103, N-[4-fluoro-3-(trifluoromethyl)phenyl]-3-{5-[1-(2-hydroxyacetyl)piperidin-3-yl]-2-methoxy-benzamido}-6-(trifluoromethyl)-1-benzothiophene-2-carboxamide]
1430 nM	COCC(=O)N1CCC(c2ccc(OC)c(C(=O)Nc3c(C(=O)Nc4ccc(F)c(C(F)(F)F)c4)sc4cc(C(F)(F)F)ccc34)c2)C1 (centres unmarked) [Example 144, N-(4-fluoro-3-(trifluoromethyl)phenyl)-3-(2-methoxy-5-(1-(2-methoxyacetyl)pyrrolidin-3-yl)benzamido)-6-(trifluoromethyl) benzo[b] thiophene-2-carboxamide]
